Source: article PMC11898701, “Evaluating Therapeutic Efficacy of the Vascular Disrupting Agent OXi8007 Against Kidney Cancer in Mice” (Cancers, 2025)

Tests used:
Ewing sarcoma = system: Ewing sarcoma; set-up: method as in PMID 19136249; settings: 200 mg/kg twice weekly; cited from earlier work
Renca cells [1] = test: Wound (scratch) assay; format: cell-based, mouse; settings: ≥ 2.5 µM, over 48 h
Method: Renca cells were plated at a seeding density of approximately 3 × 10^5 cells per well in a 6-well plate and allowed to reach confluency before treatment. A scratch was made with a sterile 10 µL pipette tip in each well before removing the medium and any detached cells. […] Hoechst 33342 was added to each well at a final concentration of 1 µg/mL and incubated for 15 min at 37 °C to stain the cell nuclei. Gen5 version 3.14 software was used for cellular and statistical analysis of the wound closure data.

[2] = system: orthotopic Renca-luc tumors; test: Acute response by oxygen-enhanced MSOT; format: in vivo, mouse
Method: For the multispectral optoacoustic tomography (MSOT), an iThera InVision 256-TF device with seven wavelengths (700, 730, 760, 780, 800, 820, and 875 nm) was used. Mice were shaved and depilated around the tumor region. The anesthetized mouse (1–2% isoflurane) was placed in the imaging chamber (34 °C) for 10 min to reach thermal equilibrium before imaging a single slice showing the largest cross-section of the tumor. An oxygen gas breathing challenge was performed to assess the dynamic changes in blood oxygenation. Images were generated using ViewMSOT version 4.2 with a back projection-based reconstruction algorithm followed by built-in fluence correction. Oxy- and deoxyhemoglobin were resolved using a linear regression approach.
Oxygen saturation (sO2) maps were analyzed using MATLAB 2022b (MathWorks Inc., Natick, MA, USA), and the images were visualized with Fiji. The percentage of hemoglobin saturation (sO2) was calculated as follows:[…]
Blank pixels represent areas lacking a detectable hemoglobin signal. The average sO2^MSOT was calculated pixelwise in each ROI for the air and oxygen breathing periods as sO2^MSOT (Air) and sO2^MSOT (O2), and the response to the oxygen gas challenge was as follows:∆sO2 = sO2 (O2) − sO2 (Air)(2) […]

[3] = system: subcutaneous MDA-MB-231 tumors; set-up: method as in earlier work; settings: cited from earlier work
Renca cells [4] = test: Renca sulforhodamine B (SRB) assay, cell growth inhibition; format: cell-based; settings: Mus musculus, Renca, 48 h
Method: (§1) In two independent trials of Renca and Renca-luc cells were plated in triplicate at 8000 cells/well into 96-well plates and incubated for 24 h at 37 °C in a humidified incubator with 5% CO2 followed by a 48 h treatment period at ten-fold dilutions of the drug.

[5] = system: orthotopic XP258 human tumor xenografts; test: Long-term therapy of XP258 human tumor xenografts; format: in vivo, mouse
Excerpt: The animal procedures were approved by the UT Southwestern Medical Center Institutional Animal Care and Use Committee under APNs 2017-102152 and 2018-102344-CORE. Renca-luc orthotopic tumors were induced by inserting tumor tissue (~1 mm^3) harvested from a donor mouse into the right kidney of syngeneic BALB/c mice (age 8 weeks, male and female; Envigo, Indianapolis, IN, USA), as described previously. Orthotopic XP258 tumors (derived from a patient with pT3aN0M1 clear cell RCC) were obtained from the UT Southwestern Kidney Cancer SPORE [53, 54] and maintained by serial passage. Tumors were induced by inserting tumor tissues from a donor tumor into the left kidney capsule of female NOD/SCID mice (Envigo).
OXi8007, synthesized by the Pinney Laboratory using published procedures, was dissolved in saline, verified to be in the pH range 7.3 to 7.5, and dosed at 250 mg/kg (IP). Cabozantinib (in PEG400 and ultrapure H2O (Milli-Q)) was administered at 3 mg/kg by oral gavage. Anti-PD-1 (10 mg/kg, Bio X Cell, Lebanon, NH, USA) and anti-CTLA-4 (5 mg/kg, Bio X Cell, Lebanon, NH) solutions were administered (IP) on the day before OXi8007 […].
We evaluated the longitudinal effects of OXi8007 alone and in combination with drugs currently favored for treating kidney cancer. For Renca-luc tumor-bearing mice, BLI was performed at least once a week to estimate tumor size, and mice were weighed weekly to adjust the dose as needed. Two treatment cohorts examined syngeneic orthotopic Renca-luc tumors in male BALB/c mice. Treatment started when the tumors reached about 1 × 10^6 photons/s peak total flux on BLI. The first cohort examined OXi8007 with cabozantinib. Mice were divided into four groups. Mice were assigned to groups as soon as there were sufficient to add the same numbers of animals to each group. The specific assignment was defined using the random number function in Excel. As such, each group included both faster- and slower-growing tumors. […]

Renca-luc cells = test: Renca-luc sulforhodamine B (SRB) assay, cell growth inhibition; format: cell-based; settings: Mus musculus, 48 h
Method: as §1

SMILES: COc1ccc2c(C(=O)c3cc(OC)c(OC)c(OC)c3)c(-c3ccc(OC)c(OP(=O)(O)O)c3)[nH]c2c1 [OXi8007]
- Tumor growth delay (Ewing sarcoma): no tumor growth delay
- Wound closure (Renca cells [1]): significantly depressed
- Period of vascular hypoxiation to plateau (MSOT) ([2]; 350 mg/kg IP in situ using a catheter, while breathing O2): about 30 min
- Time to hypoxiation (photoacoustic imaging) ([2]; after intraperitoneal administration): ≤ 30 min
- Tumor growth delay [3]: significant tumor growth delay
- IC50 (Renca cells [4]): 1450 ± 1 nM
- Tumor weights at sacrifice ([5]; XP258, long-term therapy, monotherapy or combined): much smaller tumors
- Survival versus controls ([5]; XP258 in NOD/SCID mice, OXi8007 250 mg/kg IP twice weekly, cabozantinib 3 mg/kg oral daily): significantly enhanced survival
- IC50 (Renca-luc cells): 1560 ± 48 nM
